Laboratory results published in patent US4639459A, “Use of trifluoromethyl compounds” (priority 1985, dated 1987).

What was measured:
[1] = human, in vivo; cited from earlier work
[2] = Pharmacokinetic studies comparing relative distribution in brain and plasma; conditions: rodents

Structure (SMILES) | sedation and drowsiness [1] | penetration of the brain [2]
Cc1ccc(/C(=C\CN2CCCC2)c2ccccn2)cc1 [Triprolidine, (E)-1-(4-methylphenyl)-1-(2-pyridyl)-3-pyrrolidinoprop-1-ene] | produces sedation and drowsiness in varying degrees in most patients | 
O=C(O)/C=C/c1cccc(/C(=C/CN2CCCC2)c2ccc(C(F)(F)F)cc2)n1 [Compound of Formula (I), (E)-3-{6-[3-Pyrrolidino-1(4-Trifluoromethylphenyl)prop-1E-enyl]-2-pyridyl}acrylic acid] |  | does not readily penetrate the brains of rodents
